The source of these data is patent publication US12673947B2 (Cytosinlab Therapeutics Co., Ltd., priority 2020, dated 2026).

The target in one test is T1, FLT3 (Homo sapiens, UniProt P36888).
T1 construct: purchased Carna 08-145
T1 sequence (P36888 27-993): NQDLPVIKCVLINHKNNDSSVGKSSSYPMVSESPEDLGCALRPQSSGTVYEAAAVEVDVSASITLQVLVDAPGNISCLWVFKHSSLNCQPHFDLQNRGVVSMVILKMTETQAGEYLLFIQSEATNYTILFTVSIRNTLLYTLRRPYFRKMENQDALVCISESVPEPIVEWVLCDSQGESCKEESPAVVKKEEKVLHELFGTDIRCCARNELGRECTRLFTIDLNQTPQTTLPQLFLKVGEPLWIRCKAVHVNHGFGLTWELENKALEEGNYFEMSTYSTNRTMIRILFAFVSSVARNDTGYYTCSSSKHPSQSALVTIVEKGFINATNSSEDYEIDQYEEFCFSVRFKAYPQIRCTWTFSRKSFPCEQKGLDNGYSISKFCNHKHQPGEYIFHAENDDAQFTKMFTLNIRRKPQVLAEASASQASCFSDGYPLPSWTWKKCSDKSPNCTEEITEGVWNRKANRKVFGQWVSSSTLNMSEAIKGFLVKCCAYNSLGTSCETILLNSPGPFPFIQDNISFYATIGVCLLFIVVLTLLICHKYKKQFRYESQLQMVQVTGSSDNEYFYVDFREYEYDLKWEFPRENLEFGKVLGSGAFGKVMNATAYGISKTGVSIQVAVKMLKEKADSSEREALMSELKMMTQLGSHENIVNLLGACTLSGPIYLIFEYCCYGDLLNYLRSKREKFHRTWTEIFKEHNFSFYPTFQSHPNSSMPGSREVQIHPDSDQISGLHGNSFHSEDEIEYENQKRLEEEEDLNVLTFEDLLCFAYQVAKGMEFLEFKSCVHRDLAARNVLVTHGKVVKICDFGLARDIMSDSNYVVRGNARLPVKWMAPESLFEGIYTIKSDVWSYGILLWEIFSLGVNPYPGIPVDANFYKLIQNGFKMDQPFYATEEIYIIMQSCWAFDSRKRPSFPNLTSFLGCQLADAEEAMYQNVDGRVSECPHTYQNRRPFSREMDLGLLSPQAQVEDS
Put plainly: FLT3 kinase in vitro inhibitory activity experiment (Caliper mobility shift, conversion rate). Format: biochemical. Conditions: IC50 class, read-out: Enzyme activity FLT3. The method, boiled down:
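Tested in single wells as ten 3-fold dilutions of a 1 μM initial stock. Compound and FLT3 stood 10 min at room temperature; ATP with Kinase substrate 2 was then added for 30 min at room temperature and the reaction stopped. Conversion was measured by Caliper mobility shift, and inhibition was normalised to control-well conversion.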

In another test the test system is MV4;11 cells. In words: MV4;11 in vitro inhibition of proliferation assay (CellTiter-Glo, 72 hours). Particulars: Homo sapiens, MV4-11, 72 h, IC50 class, read-out: Inhibitory activity of cell proliferation MV4;11. The test is classed as cell-based. The method, boiled down:
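IC50 came from four-parameter fitting of inhibition rates, based on CellTiter-Glo luminescence after 72 hours at 37° C. Each well held 2000 MV4;11 cells grown in IMDM with 10% serum. Compounds formed a nine-point, threefold DMSO series starting at 10 uM, tested in triplicate at 0.3% final DMSO.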

For `CCc1nc2c(N)ncc(-c3cnn(C4C[C@H]5CC[C@@H](C4)N5C(C)C)c3)c2nc1N[C@@H]1CC[C@H](O)C1` (some centres unmarked) [Compound 166], the IC50 at FLT3 and in the test on MV4;11 cells was no more than 0.01 µM throughout.

Turning to `CCc1nc2c(N)ncc(-c3cnn(C4C[C@H]5CC[C@@H](C4)N5CC(C)C)c3)c2nc1N[C@@H]1CC[C@H](O)C1` (some centres unmarked) [Compound 167], the IC50 at FLT3 and in the test with MV4;11 cells was no more than 0.01 µM in each case.

As to `CCc1nc2c(N)ncc(-c3cnn(C4C[C@H]5CC[C@@H](C4)N5S(C)(=O)=O)c3)c2nc1N[C@@H]1CC[C@H](O)C1` (some centres unmarked) [Compound 168], the IC50 on FLT3 and in the test on MV4;11 cells was no more than 0.01 µM throughout.

`CCc1nc2c(N)ncc(-c3cnn(C4CC(C)(C)N(C)C(C)(C)C4)c3)c2nc1N[C@@H]1CC[C@H](O)C1` [Compound 169, (1S,3R)-3-((5-amino-3-ethyl-8-(1-(1,2,2,6,6-pentamethylpiperidine-4-yl)-1H-pyrazol-4-yl)pyridino[3,4-b]pyrazine-2-yl)amino)cyclopentan-1-ol]: the IC50 at FLT3 and in the test with MV4;11 cells was no more than 0.01 µM throughout.

In the case of `CCc1nc2c(N)ncc(-c3cnn(C4CCN(c5cccnc5)CC4)c3)c2nc1N[C@@H]1CC[C@H](O)C1` [Compound 170], the IC50 on FLT3 and with MV4;11 cells was no more than 0.01 µM in each case.

With `CCc1nc2c(N)ncc(-c3cnn(C4CCN(c5ccnc(C)c5)CC4)c3)c2nc1N[C@@H]1CC[C@H](O)C1` [Compound 171], the IC50 at FLT3 and in the test with MV4;11 cells was no more than 0.01 µM throughout.

On to `CCc1nc2c(N)ncc(-c3cnn(C4CCN(c5ccncn5)CC4)c3)c2nc1N[C@@H]1CC[C@H](O)C1` [Compound 172], for which the IC50 at FLT3 and with MV4;11 cells was no more than 0.01 µM each time.

On to `CCc1nc2c(N)ncc(-c3cnn(C4CCN(c5ccnc(C)n5)CC4)c3)c2nc1N[C@@H]1CC[C@H](O)C1` [Compound 174], for which the IC50 on FLT3 and in the test on MV4;11 cells was no more than 0.01 µM throughout.

On to `CCc1nc2c(N)ncc(-c3cnn(C4CCN(c5cccnn5)CC4)c3)c2nc1N[C@@H]1CC[C@H](O)C1` [Compound 175], for which the IC50 at FLT3 and in the test on MV4;11 cells was no more than 0.01 µM each time.

For the compound `CCc1nc2c(N)ncc(-c3cnn(-c4ccccc4)c3)c2nc1N[C@@H]1CC[C@H](O)C1` [Compound 176], the IC50 is no more than 0.01 µM at FLT3 and 0.01 to 0.1 µM with MV4;11 cells.

As for `CCc1nc2c(N)ncc(-c3cnn(-c4ccc(C)nc4)c3)c2nc1N[C@@H]1CC[C@H](O)C1` [Compound 177, (1S,3R)-3-((5-amino-3-ethyl-8-(1-(6-methylpyridin-3-yl)-1H-pyrazol-4-yl)pyridino[3,4-b]pyrazin-2-yl)amino)cyclopentan-1-ol], the IC50 on FLT3 and with MV4;11 cells was no more than 0.01 µM throughout.

In the case of `CCc1nc2c(N)ncc(-c3cnn(-c4ccc(F)cc4F)c3)c2nc1N[C@@H]1CC[C@H](O)C1` [Compound 178], the IC50 at FLT3 and in the test on MV4;11 cells was no more than 0.01 µM in each case.

As for `CCc1nc2c(N)ncc(-c3cnn(-c4ccncn4)c3)c2nc1N[C@@H]1CC[C@H](O)C1` [Compound 179], the IC50 at FLT3 and in the test on MV4;11 cells was no more than 0.01 µM in each case.

For the compound `CCc1nc2c(N)ncc(-c3cnn(-c4ccnc(C)n4)c3)c2nc1N[C@@H]1CC[C@H](O)C1` [Compound 180, (1S,3R)-3-((5-amino-3-ethyl-8-(1-(2-methylpyrimidin-4-yl)-1H-pyrazol-4-yl)pyridino[3,4-b]pyrazin-2-yl)amino)cyclopentan-1-ol], the IC50 on FLT3 and in the test with MV4;11 cells was no more than 0.01 µM throughout.

`CCc1nc2c(N)ncc(-c3cnn(C4CCN(CC(C)(C)O)CC4)c3)c2nc1N[C@@H]1CC[C@H](O)C1` [Compound 181]: the IC50 on FLT3 and in the test on MV4;11 cells was no more than 0.01 µM in each case.

In the case of `CCc1nc2c(N)ncc(-c3cnn(C4CCN(CC(C)C)CC4)c3)c2nc1N[C@@H]1CC[C@H](O)C1` [Compound 182], the IC50 at FLT3 and in the test on MV4;11 cells was no more than 0.01 µM throughout.

For `CCc1nc2c(N)ncc(-c3cnn(C4CCN(C(C)CC)CC4)c3)c2nc1N[C@@H]1CC[C@H](O)C1` (some centres unmarked) [Compound 183], the IC50 at FLT3 and in the test with MV4;11 cells was no more than 0.01 µM each time.

As for `CCc1nc2c(N)ncc(-c3cnn(C4CCN(C(CC)CC)CC4)c3)c2nc1N[C@@H]1CC[C@H](O)C1` [Compound 184], the IC50 at FLT3 and with MV4;11 cells was no more than 0.01 µM in each case.

On to `CCc1nc2c(N)ncc(-c3cnn(C4CCN(C(=O)C(C)C)CC4)c3)c2nc1N[C@@H]1CC[C@H](O)C1` [Compound 185, 1-(4-(4-(5-amino-3-ethyl-2-(((1R,3S)-3-hydroxycyclopentyl)amino)pyridino[3,4-b]pyrazin-8-yl)-1H-pyrazol-1-yl)piperidin-1-yl)-2-methylpropyl-1-one], for which the IC50 at FLT3 and in the test with MV4;11 cells was no more than 0.01 µM throughout.

For `CCc1nc2c(N)ncc(-c3cnn(C4CCN(S(C)(=O)=O)CC4)c3)c2nc1N[C@@H]1CC[C@H](O)C1` [Compound 186], the IC50 at FLT3 and in the test with MV4;11 cells was no more than 0.01 µM in each case.

Take `CCc1nc2c(N)ncc(-c3cnn(C4CCN(S(=O)(=O)C(C)C)CC4)c3)c2nc1N[C@@H]1CC[C@H](O)C1` [Compound 187, (1S,3R)-3-((5-amino-3-ethyl-8-(1-(1-(isopropylsulfonyl)piperidin-4-yl)-1H-pyrazol-4-yl)pyridino[3,4b]pyrazin-2-yl)amino)cyclopentan-1-ol]: the IC50 on FLT3 and in the test with MV4;11 cells was no more than 0.01 µM each time.

On to `CCc1nc2c(N)ncc(-c3cnn(C4CCN(S(=O)(=O)CC(C)C)CC4)c3)c2nc1N[C@@H]1CC[C@H](O)C1` [Compound 188], for which the IC50 on FLT3 and in the test on MV4;11 cells was no more than 0.01 µM in each case.

In the case of `CCc1nc2c(N)ncc(-c3cnn(C4CCN(C(=O)NC(C)C)CC4)c3)c2nc1N[C@@H]1CC[C@H](O)C1` [Compound 189], the IC50 on FLT3 and in the test with MV4;11 cells was no more than 0.01 µM in each case.

In the case of `CCc1nc2c(N)ncc(-c3cnn(C4CCN(C(=O)OC(C)(C)C)CC4)c3)c2nc1N[C@@H]1CC[C@H](O)C1` [Compound 190], the IC50 at FLT3 and in the test on MV4;11 cells was no more than 0.01 µM in each case.

Take `CCc1nc2c(N)ncc(-c3cnn(C4CCCCC4)c3)c2nc1N[C@@H]1CC[C@H](O)C1` [Compound 192]: the IC50 on FLT3 and in the test on MV4;11 cells was no more than 0.01 µM in each case.

In the case of `CCc1nc2c(N)ncc(-c3cnn(C4CCC(F)(F)CC4)c3)c2nc1N[C@@H]1CC[C@H](O)C1` [Compound 193], the IC50 at FLT3 and in the test on MV4;11 cells was no more than 0.01 µM throughout.

As for `CCc1nc2c(N)ncc(-c3cnn(C)c3)c2nc1N[C@@H]1CC[C@H](O)C1` [Compound 194], the IC50 on FLT3 and with MV4;11 cells was no more than 0.01 µM throughout.

Turning to `CCc1nc2c(N)ncc(-c3cnn(C(CC)CC)c3)c2nc1N[C@@H]1CC[C@H](O)C1` [Compound 195], the IC50 at FLT3 and in the test with MV4;11 cells was 0.01 to 0.1 µM in each case.

With `CCc1nc2c(N)ncc(-c3cnn(CCOC)c3)c2nc1N[C@@H]1CC[C@H](O)C1` [Compound 196], the results for the IC50 on FLT3 and in the test with MV4;11 cells were no more than 0.01 µM and 0.01 to 0.1 µM, respectively.

On to `CCc1nc2c(N)ncc(-c3cnn(CC(C)(C)O)c3)c2nc1N[C@@H]1CC[C@H](O)C1` [Compound 197], for which the IC50 at FLT3 is no more than 0.01 µM; in the test with MV4;11 cells, 0.01 to 0.1 µM.

Take `CCc1nc2c(N)ncc(-c3cnn(CCO)c3)c2nc1N[C@@H]1CC[C@H](O)C1` [Compound 198]: the IC50 on FLT3 is no more than 0.01 µM; in the test on MV4;11 cells it was 0.01 to 0.1 µM.

In the case of `CCc1nc2c(N)ncc(-c3cnn(C4COC4)c3)c2nc1N[C@@H]1CC[C@H](O)C1` [Compound 199], the IC50 at FLT3 and in the test with MV4;11 cells was no more than 0.01 µM each time.

Turning to `CCc1nc2c(N)ncc(-c3cnn(CC4COC4)c3)c2nc1N[C@@H]1CC[C@H](O)C1` [Compound 200], the IC50 at FLT3 and in the test with MV4;11 cells was no more than 0.01 µM each time.

`CCc1nc2c(N)ncc(-c3cnn(C(C)C)c3)c2nc1N[C@@H]1CC[C@H](O)C1` [Compound 201]: the IC50 on FLT3 and with MV4;11 cells was no more than 0.01 µM throughout.

In the case of `CCc1nc2c(N)ncc(-c3cnn(C4CC4)c3)c2nc1N[C@@H]1CC[C@H](O)C1` [Compound 202], the IC50 on FLT3 and in the test on MV4;11 cells was no more than 0.01 µM throughout.

As for `CCc1nc2c(N)ncc(-c3cn[nH]c3)c2nc1N[C@@H]1CC[C@H](O)C1` [Compound 203], the IC50 on FLT3 is no more than 0.01 µM; with MV4;11 cells it was 0.01 to 0.1 µM.

As for `CCc1nc2c(N)ncc(-c3cnn(CC4CCN(C)CC4)c3)c2nc1N[C@@H]1CC[C@H](O)C1` [Compound 204], the IC50 at FLT3 and in the test with MV4;11 cells was no more than 0.01 µM in each case.
